The subject of data set [1] is larvae of the mustard beetle (Phaedon cochleariae). Put plainly: Phaedon test (PHAECO spray treatment). Particulars: Phaedon cochleariae, in Brassica rapa, foliar, read-out: effect in % (beetle larvae killed).
Data set [2] deals with caterpillars of the armyworm (Spodoptera frugiperda). Put plainly: Spodoptera frugiperda test (SPODFR spray treatment). It counts as in vivo. Particulars: Spodoptera frugiperda, foliar, read-out: effect in % (caterpillars killed). An excerpt: Solvent: 78.0 parts by weight of acetone
A short description of data set [3]: log P determination by HPLC (EEC Directive 79/831 Annex V.A8). Type of data set: physicochemical. The protocol:
The measurements were carried out using an Agilent 1100 LC system with a 50*4.6 Zorbax Eclipse C18 1.8 μm column (oven temperature 55° C., flow rate 2.0 ml/min).
The following mobile phases were used:
Mobile phase A: acetonitrile+1000 μl of formic acid/l
Mobile phase B: Millipore water+900 μl of formic acid/l

Where [4] appears, read: reversed-phase HPLC, Zorbax Eclipse C18 column, by HPLC according to EEC Directive 79/831 Annex V.A8, read-out: log P.
Where [5] appears, read: application rate 100 g/ha, maize leaf discs.

14 compounds from patent publication US8324390B2, “Tetrazole-substituted anthranilamides as pesticides” (Bayer CropScience AG, priority 2008, dated 2012) can be followed below.

Each structure is given as a SMILES string. Like-named read-outs stand apart in the source and are kept apart here.

For `Cc1cc(Cl)cc(C(=O)NC(C)C2CC2)c1NC(=O)c1cc(Cn2nnc(C(F)(F)C(F)(F)F)n2)nn1-c1ncccc1Cl` (stereo not drawn) [Example 126], the pest or weed control at 100 g/ha in data set [1] and in data set [2] (in Zea mays) was at least 80% each time. Further, the chromatographic logP in data set [3] (log P) was found to be 4.25.
`CNC(=O)c1cc(C#N)cc(C)c1NC(=O)c1cc(Cn2nnc(C(F)(F)F)n2)nn1-c1ncccc1Cl` [Example 12]: the pest or weed control at 100 g/ha in data set [1] and in data set [2] (in Zea mays) was at least 80% in each case. Moreover, in data set [3] (setting [4]), the chromatographic logP amounted to 2.66.
With `Cc1cc(Cl)cc(C(=O)NC2CCC2)c1NC(=O)c1cc(Cn2nnc(C(F)(F)C(F)(F)F)n2)nn1-c1ncccc1Cl` [Example 132], the pest or weed control at 100 g/ha in data set [1] and in data set [2] (in Zea mays) was at least 80% throughout. Also, the chromatographic logP in data set [3] (log P) was 4.03.
As for `Cc1cc(C#N)cc(C(=O)NC(C)C)c1NC(=O)c1cc(Cn2nnc(C(F)(C(F)(F)F)C(F)(F)F)n2)nn1-c1ncccc1Cl` [Example 370], the pest or weed control at 100 g/ha in data set [1] and in data set [2] (setting [5]) was at least 80% in each case. Besides, the chromatographic logP in data set [3] (setting [4]) turned out to be 3.79.
On to `Cc1cc(C#N)cc(C(=O)NC(C)(C)C)c1NC(=O)c1cc(Cn2nnc(C(F)F)n2)nn1-c1ncccc1Cl` [Example 267], for which the pest or weed control at 100 g/ha in data set [1] and in data set [2] (in Zea mays) was at least 80% throughout. In data set [3] (log P), this compound registered a chromatographic logP of 2.88.
On to `Cc1cc(Cl)cc(C(=O)NC2CC2)c1NC(=O)c1cc(Cn2nnc(C(F)(F)C(F)(F)C(F)(F)F)n2)nn1-c1ncccc1Cl` [Example 4], for which the pest or weed control at 100 g/ha in data set [1] and in data set [2] (in Zea mays) was at least 80% in each case. Besides, the chromatographic logP in data set [3] (by HPLC according to EEC Directive 79/831 Annex V.A8, read-out: log P) worked out at 3.96.
Consider `Cc1cc(C#N)cc(C(=O)NCC#N)c1NC(=O)c1cc(Cn2nnc(C(F)(F)C(F)(F)F)n2)nn1-c1ncccc1Cl` [Example 210], for which the pest or weed control at 100 g/ha in data set [1] and in data set [2] (in Zea mays) was at least 80% throughout. This compound also displayed a chromatographic logP in data set [3] (log P) of 3.01.
With `CCNC(=O)c1cc(Cl)cc(C)c1NC(=O)c1cc(Cn2nnc(C(F)(F)F)n2)nn1-c1ncccc1Cl` [Example 33], the pest or weed control at 100 g/ha in data set [1] and in data set [2] (in Zea mays) was at least 80% throughout. Also, in data set [3] (log P), the chromatographic logP is 3.23.
In the case of `CNC(=O)c1cc(C#N)cc(C)c1NC(=O)c1cc(Cn2nnc(C(F)(F)F)n2)nn1-c1cccc(Cl)c1Cl` [Example 327], the pest or weed control at 100 g/ha in data set [1] and in data set [2] (setting [5]) was at least 80% throughout. Also, in data set [3] (setting [4]), the chromatographic logP was 3.4.
`CNC(=O)c1cc(Cl)cc(C)c1NC(=O)c1cc(Cn2nnc(C(C)(C)C)n2)nn1-c1ncccc1Cl` [Example 103]: the pest or weed control at 100 g/ha in data set [1] and in data set [2] (in Zea mays) was at least 80% throughout. This compound showed a chromatographic logP in data set [3] (log P) of 3.02.
In the case of `Cc1cc(Cl)cc(C(=O)NC(C)C)c1NC(=O)c1cc(Cn2nnc(C(F)(F)C(F)(F)C(F)(F)F)n2)nn1-c1ncccc1Cl` [Example 1, 2-(3-chloropyridin-2-yl)-5-(5-heptafluoropropyltetrazol-2-ylmethyl)-2H-pyrazole-3-carboxylic acid (4-chloro-2-isopropylcarbamoyl-6-methylphenyl)amide], the pest or weed control at 100 g/ha in data set [1] and in data set [2] (in Zea mays) was at least 80% in each case. In addition, in data set [3] (HPLC, acetonitrile/water with formic acid, read-out: log P), the chromatographic logP was 4.23.
As for `CNC(=O)c1cc(C#N)cc(C)c1NC(=O)c1cc(Cn2nnnc2C(F)(F)F)nn1-c1ccccc1C(F)(F)F` [Example 490], the pest or weed control at 100 g/ha in data set [1] and in data set [2] (setting [5]) was at least 80% in each case. Besides, in data set [3] (reversed-phase HPLC, Zorbax Eclipse C18 column, determined by HPLC according to EEC Directive 79/831 Annex V.A8, read-out: log P), the chromatographic logP turned out to be 2.91.
In the case of `O=C(NC1CC1)c1cc(Cl)cc(Cl)c1NC(=O)c1cc(Cn2nnc(C(F)(F)F)n2)nn1-c1ncccc1Cl` [Example 57], the pest or weed control at 100 g/ha in data set [1] and in data set [2] (in Zea mays) was at least 80% throughout. This compound also came in with a chromatographic logP in data set [3] (log P) of 3.18.
As for `Cc1cc(Cl)cc(C(=O)NC(C)C2CC2)c1NC(=O)c1cc(Cn2nnnc2C(F)(F)C(F)(F)F)nn1-c1ncccc1Cl` (stereo not drawn) [Example 199], the pest or weed control at 100 g/ha in data set [1] and in data set [2] (in Zea mays) was at least 80% in each case. This compound had a chromatographic logP in data set [3] (log P) of 3.88.
